Assay results reported in paper PMC12292862 (Biomedicines, 2025).
Entries after “also recorded” stand apart in the source; their conditions may differ.

Key:
bovine serum albumin = bovine serum albumin (Bos taurus, UniProt P02769); assay: Bovine serum albumin denaturation inhibition assay; conditions: 50–1000 µg/mL; Figure 2A; result in words
Protocol: A bovine serum albumin assay was conducted using the previously mentioned technique. Synthesized compounds were dissolved in 2% Tween 80 saline solution (v/v) to create a solution at different doses of 50, 100, 200, 400, 800, and 1000 μg/mL. To prepare the test control sample (0.5 mL), 0.45 mL of 5% w/v bovine serum albumin was dissolved in 0.05 mL of distilled water. A product control solution was made by mixing 0.45 mL of Tween 80 with 0.50 mL of the test sample. 0.45 mL of bovine serum albumin and 0.50 mL of synthesized compounds made up the […] test solution. […] A pH of 6.3 was adjusted using 1 N HCl. Every solution was heated for 3 min at 60 °C after being kept at 37 °C for 20 min. Samples were then allowed to cool, and their absorbance at 660 nm was measured. Three duplicates of the procedure were carried out, and the percentage inhibition of denaturation of the bovine serum albumin was calculated using the following formula:%Inhibition = ((Absorbance Control − Absorbance Sample)/(Absorbance control)) × 100.

egg albumin = assay: Egg albumin protein denaturation inhibition assay; conditions: 50–1000 µg/mL; Figure 2B; result in words
Protocol: To determine the egg albumin protein denaturation inhibition assay, the previously mentioned approach was used. Egg albumin (0.2 mL), 2.8 mL of phosphate-buffered saline (pH 6.4), and 2 mL of synthesized compound solutions in various concentrations were added to 5 mL of reaction mixture for this experiment. […] The reaction solutions were heated to 37 °C for 15 min, then to 70 °C for 5 min. After cooling, the absorbance of the solutions was measured at 660 nm. The experiment was conducted in triplicate, and the percentage inhibition of denaturation of the protein was calculated using the following formula:%Inhibition = ((Absorbance Control − Absorbance Sample)/(Absorbance control)) × 100.

rat paw tissue = assay: Histomorphometry lesion scores of paw tissue sections; format: in vivo; conditions: vs carrageenan group; for inflammation scores: Figure 11A; for total lesion scores: Figure 11D

Chain of bovine serum albumin (P02769 25-607): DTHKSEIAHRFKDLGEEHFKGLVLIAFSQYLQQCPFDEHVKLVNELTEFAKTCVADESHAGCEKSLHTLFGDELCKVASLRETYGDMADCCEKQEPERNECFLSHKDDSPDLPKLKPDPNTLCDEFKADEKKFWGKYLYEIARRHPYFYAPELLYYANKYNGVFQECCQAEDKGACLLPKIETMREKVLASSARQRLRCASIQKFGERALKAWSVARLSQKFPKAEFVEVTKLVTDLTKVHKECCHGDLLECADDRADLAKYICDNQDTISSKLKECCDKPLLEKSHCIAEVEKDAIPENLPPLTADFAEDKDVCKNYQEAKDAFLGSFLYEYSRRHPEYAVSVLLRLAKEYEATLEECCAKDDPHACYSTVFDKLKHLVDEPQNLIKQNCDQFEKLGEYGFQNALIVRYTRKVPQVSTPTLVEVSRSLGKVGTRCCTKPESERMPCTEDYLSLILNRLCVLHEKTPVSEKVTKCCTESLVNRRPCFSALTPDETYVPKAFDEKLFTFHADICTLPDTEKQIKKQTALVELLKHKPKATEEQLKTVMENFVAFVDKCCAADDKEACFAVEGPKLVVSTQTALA

| Structure (SMILES) | inhibition of bovine serum albumin denaturation (bovine serum albumin) | inhibition of egg albumin protein denaturation (egg albumin) | inflammation scores (rat paw tissue) | total lesion scores (rat paw tissue) | inflammation scores (rat paw tissue; listed as compound 3) | edema scores (rat paw tissue; Figure 11B) | vascular alteration scores (rat paw tissue; Figure 11C) |
| --- | --- | --- | --- | --- | --- | --- | --- |
| CC1(C)CC(=O)CC2(C1)N=C(N)Nc1nc(C(=O)Nc3ccc(S(N)(=O)=O)cc3)nn12 (centres unmarked) [Compound 2] | moderate inhibition; also recorded: superior percentage inhibition of protein denaturation | moderate inhibition; also recorded: superior percentage inhibition of protein denaturation | – | – | – | – | – |
| NC1=NC2(CCCCCC2)n2nc(C(=O)Nc3ccc(S(N)(=O)=O)cc3)nc2N1 [Compound 1, 5′-Amino-N-(4-sulfamoylphenyl). -1′H-spiro[cycloheptane-1,7′-[1,2,4]triazolo[1,5-a][1,3,5] -triazine] -2′-carboxamide] | – | – | significantly reduced inflammation scores | reduced total lesion scores significantly | – | – | – |
| NC1=NC2(c3ccccc3Cc3ccccc32)n2nc(C(=O)Nc3ccc(S(N)(=O)=O)cc3)nc2N1 [Compound 3] | highest protective effect; also recorded: superior percentage inhibition of protein denaturation | highest protective effect; also recorded: superior percentage inhibition of protein denaturation | approaching those of the normal control group | reduced total lesion scores significantly; also recorded: comparable to the normal control group | significantly reduced inflammation scores | comparable to those of the control group | near-normal levels |
